Broadly, the IC50 is the concentration at which inhibition is half-maximal.

Each structure is given as a SMILES string.

The target in assay [1] is T1, human recombinant Btk (Homo sapiens, UniProt Q06187).
T1 construct: purchased Invitrogen Corporation
The assay is described as follows: Human Recombinant Btk Enzyme Assay (LLE_BTK). Type of assay: biochemical. As to the method: Human Recombinant Btk Enzyme Assay
To V-bottom 384-well plates were added test compounds, human recombinant Btk (1 nM, Invitrogen Corporation), fluoresceinated peptide (1.5 μM), ATP (20 μM), and assay buffer (20 mM HEPES pH 7.4, 10 mM MgCl2, 0.015% Brij35 and 4 mM DTT in 1.6% DMSO), with a final volume of 30 μL. After incubating at room temperature for 60 min, the reaction was terminated by adding 45 μl of 35 mM EDTA to each sample. The reaction mixture was analyzed on the Caliper LABCHIP® 3000 (Caliper, Hopkinton, Mass.) by electrophoretic separation of the fluorescent substrate and phosphorylated product. Inhibition data were calculated by comparison to no enzyme control reactions for 100% inhibition and no inhibitor controls for 0% inhibition. Dose response curves were generated to determine the concentration required inhibiting 50% of kinase activity (IC50). Compounds were dissolved at 10 mM in dimethylsulfoxide (DMSO) and evaluated at eleven concentrations.
Using this assay, the following IC50 values derived by non-linear regression analysis were determined and compared to those values of certain compounds in U.S. Publication No. 2007/078136 and U.S. Publication No. 2008/045536.

In assay [2] the test system is Ramos B cells with beta-lactamase reporter gene under control of an NFAT response element. The assay is described as follows: NFAT-bla RA1 Reporter Assay (Ramos-NFAT). Type of assay: cell-based, human. Conditions: Homo sapiens, Ramos, read-out: IMM Ramos-NFAT (IC50). As to the method:
NFAT-bla RA1 Reporter Assay
Ramos B cells containing a stable integration of a beta-lactamase reporter gene under the control of an NFAT response element (NFAT-bla RA1, Invitrogen, K1434) at a density of 100×10^3 cells/well were incubated with test compounds at 37° C. for 30 min prior to stimulation with F(ab′)2 anti-human IgM (Jackson ImmunoResearch, 109-006-129) at 2.5 μg/ml for 4.5 hrs at 37° C. After stimulation, LiveBLAzer-FRET B/G substrate (CCF2/AM, or CCF4/AM, Invitrogen) was added to each well and incubated for 90 min at room temperature in the dark. Assay plates were read on an LJL Analyst, with raw emission values subtracted from a media-only blank containing substrate in assay media (no cells). The ratios of 460 nm/530 nm emission (405 nm excitation) were used to calculate the amount of stimulation.
Background: In a reporter assay the amount or activity of a reporter protein is the signal.

T1 sequence (Q06187 whole entry): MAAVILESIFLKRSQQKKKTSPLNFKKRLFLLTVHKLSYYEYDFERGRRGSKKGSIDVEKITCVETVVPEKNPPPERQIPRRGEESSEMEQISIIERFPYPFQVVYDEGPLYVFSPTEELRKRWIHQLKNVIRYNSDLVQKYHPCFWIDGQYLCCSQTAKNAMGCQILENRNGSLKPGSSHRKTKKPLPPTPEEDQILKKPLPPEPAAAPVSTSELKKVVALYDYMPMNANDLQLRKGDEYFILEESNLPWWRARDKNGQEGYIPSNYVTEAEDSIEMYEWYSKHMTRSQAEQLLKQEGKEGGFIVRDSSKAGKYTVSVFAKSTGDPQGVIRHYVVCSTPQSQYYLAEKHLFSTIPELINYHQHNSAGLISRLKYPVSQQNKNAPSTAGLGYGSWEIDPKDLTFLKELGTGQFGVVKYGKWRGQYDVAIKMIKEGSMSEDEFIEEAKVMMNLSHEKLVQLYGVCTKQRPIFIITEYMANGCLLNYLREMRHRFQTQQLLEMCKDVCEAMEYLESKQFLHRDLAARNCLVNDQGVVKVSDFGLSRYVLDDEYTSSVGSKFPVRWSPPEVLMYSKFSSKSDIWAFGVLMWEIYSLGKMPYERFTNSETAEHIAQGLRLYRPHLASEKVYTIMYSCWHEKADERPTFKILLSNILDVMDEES

On to `CN(c1cccc(Nc2nc(-c3ccc(Cl)cc3)ccc2C(N)=O)c1)S(=O)(=O)Cc1ccccc1` [Example 376], for which the IC50 in assay [1] worked out at 6900 nM. In the case of `CC(=O)N[C@@H]1CCCN(c2nc(Nc3ccc(N4CCN(C)CC4)cc3)c(C(N)=O)cc2F)C1` [Example 386], the IC50 in assay [1] was found to be 10 nM; in assay [2] it was 110 nM.

Turning to `CN1CCC(C)(c2ccc(Nc3nc(N4CCC[C@@H](NC(=O)Nc5ncc(F)s5)C4)c(F)cc3C(N)=O)cc2)CC1` [Example 495], the IC50 in assay [1] came to 1 nM; in assay [2] it was 80 nM. For `CC(C)(C)OC(=O)c1ccc(Nc2nc(N3CCCCC3)ccc2C(N)=O)cc1` [Example 314], the 50% inhibitory concentration (IC50) in assay [1] was 1800 nM. As to `CN1CCCC(c2ccc(Nc3nc(N4CCC[C@@H](NC(=O)Nc5nnc(C6CC6)s5)C4)c(F)cc3C(N)=O)cc2)C1` (some centres unmarked) [Example 560], the IC50 in assay [1] stood at 0.8 nM; in assay [2] it was 180 nM. With `NC(=O)c1cc(F)c(N2CCC[C@@H](NC(=O)Nc3nccs3)C2)nc1Nc1ccc(CCN2CCC2)cc1` [Example 547], the half-maximal inhibitory concentration (IC50) in assay [1] turned out to be 1 nM; in assay [2] it was 50 nM. In the same order, the values of `CN1CCN(c2ccc(Nc3nc(N4CCC[C@@H](NC(=O)c5ccc(F)cc5)C4)c(F)cc3C(N)=O)cc2)CC1` [Example 412] are 1 nM and 180 nM. As to `CC(=O)c1ccccc1-c1ccc(C(N)=O)c(Nc2ccc(C(=O)N3CCOCC3)cc2)n1` [Example 132], the half-inhibitory concentration (IC50) in assay [1] came to 1000 nM. Consider `NC(=O)c1cc(F)c(N2CCC[C@@H](NC(=O)Nc3nccs3)C2)nc1Nc1ccc(CCn2ccnc2)cc1` [Example 548], for which the values for the half-inhibitory concentration (IC50) in assay [1] and in assay [2] were 2 nM and 270 nM, respectively.

As to `CS(=O)(=O)c1ccc(Nc2nc(N3CCCC4(CC(c5ccccc5)=NO4)C3)ccc2C(N)=O)cc1` (centres unmarked) [Example 29, 2-((4-(Methylsulfonyl)phenyl)amino)-6-(3-phenyl-1-oxa-2,7-diazaspiro[4.5]dec-2-en-7-yl)nicotinamide], the concentration for half-maximal inhibition (IC50) in assay [1] turned out to be 1 nM; in assay [2], 160 nM.

In the case of `CNc1cccc(Nc2nc(-c3ccc(Cl)cc3)ccc2C(N)=O)c1` [Example 380], the half-inhibitory concentration (IC50) in assay [1] is 3200 nM.

Take `C[N+](C)([O-])CCc1ccc(Nc2nc(N3CCC[C@@H](NC(=O)Nc4nccs4)C3)c(F)cc2C(N)=O)cc1` [Example 552]: the concentration for half-maximal inhibition (IC50) in assay [1] amounted to 1 nM; in assay [2], 5400 nM. On to `NC(=O)c1cc(F)c(N2CCC[C@@H](NC(=O)c3ccccc3)C2)nc1Nc1ccc(N2CCOCC2)cc1` [Example 422], for which the IC50 in assay [1] turned out to be 20 nM; in assay [2], 120 nM. In the same order, the values of `CN1CCC(c2ccc(Nc3nc(N4CCC[C@@H](NC(=O)Nc5nncs5)C4)c(F)cc3C(N)=O)cc2)CC1` [Example 493] are 0.7 nM and 130 nM. Regarding `CC(C)(C)c1ccc(C(=O)Nc2cccc(-c3ccc(C(N)=O)c(Nc4ccc(C(=O)N5CCOCC5)cc4)n3)c2)cc1` [Example 37], in assay [1], the half-inhibitory concentration (IC50) turned out to be 1400 nM. On the same count and under the same terms, the result for `NC(=O)c1cc(F)c(N2CCCCC2)nc1Nc1ccc(F)cc1` [Example 15, 5-Fluoro-2-(4-fluorophenylamino)-6-(piperidin-1-yl)nicotinamide] reads 870 nM; that for `CS(=O)(=O)Nc1cccc(Nc2nc(-c3ccc(Cl)cc3)ccc2C(N)=O)c1` [Example 375], 1200 nM; that for `NC(=O)c1ccc(N2CCNCC2)nc1Nc1ccc(C(=O)N2CCOCC2)cc1` [Example 10, 2-(4-(Morpholine-4-carbonyl)phenylamino)-6-(piperazin-1-yl)nicotinamide], 1800 nM. On the same count and under the same terms, then `CN(c1cccc(Nc2nc(N3CCOCC3)c(F)cc2C(N)=O)c1)S(=O)(=O)c1cccc2ccccc12` [Example 538], with 1200 nM. On to `NC(=O)c1ccc(N2CCC[C@@H](N)C2)nc1Nc1ccccc1` [Example 299], for which the half-maximal inhibitory concentration (IC50) in assay [1] was determined as 1500 nM. Same read-out and setting: then `Cc1ccc(NC(=O)c2ccc(C(C)(C)C)cc2)cc1-c1ccc(C(N)=O)c(Nc2ccc(C(=O)N3CCOCC3)cc2)n1` [Example 162], with 1400 nM; and `CN(c1cccc(Nc2nc(N3CCOCC3)c(F)cc2C(N)=O)c1)S(=O)(=O)c1ccc(-c2ccccc2)cc1` [Example 537], with 1100 nM. Still for that read-out and setting: then `CN1CCC(C)(c2ccc(Nc3nc(N4CCC[C@@H](NC(=O)Nc5nnc(C(C)(C)C)s5)C4)c(F)cc3C(N)=O)cc2)CC1` [Example 494], with 0.6 nM; and `CC(C)(C)OC(=O)N[C@@H]1CCN(c2ccc(C(N)=O)c(Nc3ccc(C(=O)N4CCOCC4)cc3)n2)C1` [Example 44], with 750 nM. On the same count and under the same terms, the result for `CC(C)(C)c1ccc(NC(=O)[C@@H]2CCN(c3ccc(C(N)=O)c(Nc4ccc(C(=O)N5CCOCC5)cc4)n3)C2)cc1` [Example 163] reads 1500 nM; that for `N#Cc1ccc(Nc2nc(N3CCC[C@@H](N)C3)ccc2C(N)=O)cc1` [Example 302], 880 nM. On to `CN(c1cccc(Nc2nc(-c3ccc(Cl)cc3)ccc2C(N)=O)c1)S(=O)(=O)c1ccccc1` [Example 381], for which the 50% inhibitory concentration (IC50) in assay [1] is 1000 nM. On the same count and under the same terms, then `CC(C)(C)OC(=O)N[C@@H]1CCCN(c2ccc(C(N)=O)c(Nc3ccccc3)n2)C1` [Example 295], with 1700 nM; and `NC(=O)c1cc(F)c(N2CCOCC2)nc1Nc1cccc(N(S(=O)(=O)CCCCl)S(=O)(=O)CCCCl)c1` [Example 535], with 980 nM; and `NC(=O)c1cc(F)c(N2CCOCC2)nc1Nc1cccc(CS(=O)(=O)N2CCCC2)c1` [Example 533], with 22000 nM. Same read-out and setting: then `NC(=O)c1ccc(N2CC[C@@H](N)C2)nc1Nc1ccc(C(=O)N2CCOCC2)cc1` [Example 45], with 2100 nM. Still for that read-out and setting: the result for `NC(=O)c1ccc(-c2ccc(Cl)c(C(F)(F)F)c2)nc1Nc1ccc(C(=O)N2CCOCC2)cc1` [Example 143] reads 1200 nM; that for `CN(C(=O)Nc1ccccc1)c1cccc(Nc2nc(N3CCOCC3)c(F)cc2C(N)=O)c1` [Example 529], 1000 nM; that for `COc1cc(Nc2nc(N3CCC[C@@H](NC(=O)c4ccccc4)C3)c(F)cc2C(N)=O)ccc1OCCNC1CC1` [Example 511], 730 nM.

For the compound `Cc1ccc(NC(=O)N[C@@H]2CCCN(c3ccc(C(N)=O)c(Nc4ccccc4)n3)C2)cc1C` [Example 300], the IC50 in assay [1] amounted to 1300 nM. For the compound `Cc1csc(NC(=O)N[C@@H]2CCCN(c3ccc(C(N)=O)c(Nc4ccc(N5CCOCC5)cc4)n3)C2)n1` [Example 337], in assay [1], the IC50 worked out at 760 nM.

For `NC(=O)c1ccc(N2CCCCC2)nc1Nc1ccc(C(=O)Nc2ccccc2)cc1` [Example 323], in assay [1], the IC50 amounted to 780 nM.

Regarding `NC(=O)c1ccc(NCc2ccccc2)nc1Nc1ccccc1` [Example 298], the IC50 in assay [1] is 12000 nM. On the same count and under the same terms, the result for `CNC(=O)c1ccc(N2CCC[C@@H](NC(=O)c3ccc(C(C)(C)C)cc3)C2)nc1Nc1ccc(C(=O)N2CCOCC2)cc1` [Example 442] reads 2600 nM; that for `NC(=O)c1ccc(N2CC[C@@H](NC(=O)c3ccc(C(F)(F)F)cc3)C2)nc1Nc1ccc(C(=O)N2CCOCC2)cc1` [Example 50], 740 nM; that for `COc1cccc(Nc2nc(N3CCC[C@@H](NC(=O)Nc4nc(C)cs4)C3)ccc2C(N)=O)c1` [Example 331], 780 nM. On the same count and under the same terms, the result for `CC(C)(C)c1ccc(NC(=O)[C@@H]2CCCN(c3ccc(C(N)=O)c(Nc4ccc(C(=O)N5CCOCC5)cc4)n3)C2)cc1` [Example 164] reads 2700 nM; that for `NC(=O)c1ccc(N2CCC[C@@H](C(=O)O)C2)nc1Nc1ccc(C(=O)N2CCOCC2)cc1` [Example 165], 2900 nM.

The values are drawn from patent US8586751B2, “Nicotinamide compounds useful as kinase modulators” (Bristol-Myers Squibb Company, priority 2009, dated 2013).
